Results as given in ChEMBL document CHEMBL3991601, “The target landscape of clinical kinase drugs” (Science, 2017).
pKd: −log10 of the molar value. Calls of active or inactive are those of the source.

Assays:
[1] = target: T1, Bone morphogenetic protein receptor type-2 (Homo sapiens, UniProt Q13873)
T1 sequence (Q13873 whole entry): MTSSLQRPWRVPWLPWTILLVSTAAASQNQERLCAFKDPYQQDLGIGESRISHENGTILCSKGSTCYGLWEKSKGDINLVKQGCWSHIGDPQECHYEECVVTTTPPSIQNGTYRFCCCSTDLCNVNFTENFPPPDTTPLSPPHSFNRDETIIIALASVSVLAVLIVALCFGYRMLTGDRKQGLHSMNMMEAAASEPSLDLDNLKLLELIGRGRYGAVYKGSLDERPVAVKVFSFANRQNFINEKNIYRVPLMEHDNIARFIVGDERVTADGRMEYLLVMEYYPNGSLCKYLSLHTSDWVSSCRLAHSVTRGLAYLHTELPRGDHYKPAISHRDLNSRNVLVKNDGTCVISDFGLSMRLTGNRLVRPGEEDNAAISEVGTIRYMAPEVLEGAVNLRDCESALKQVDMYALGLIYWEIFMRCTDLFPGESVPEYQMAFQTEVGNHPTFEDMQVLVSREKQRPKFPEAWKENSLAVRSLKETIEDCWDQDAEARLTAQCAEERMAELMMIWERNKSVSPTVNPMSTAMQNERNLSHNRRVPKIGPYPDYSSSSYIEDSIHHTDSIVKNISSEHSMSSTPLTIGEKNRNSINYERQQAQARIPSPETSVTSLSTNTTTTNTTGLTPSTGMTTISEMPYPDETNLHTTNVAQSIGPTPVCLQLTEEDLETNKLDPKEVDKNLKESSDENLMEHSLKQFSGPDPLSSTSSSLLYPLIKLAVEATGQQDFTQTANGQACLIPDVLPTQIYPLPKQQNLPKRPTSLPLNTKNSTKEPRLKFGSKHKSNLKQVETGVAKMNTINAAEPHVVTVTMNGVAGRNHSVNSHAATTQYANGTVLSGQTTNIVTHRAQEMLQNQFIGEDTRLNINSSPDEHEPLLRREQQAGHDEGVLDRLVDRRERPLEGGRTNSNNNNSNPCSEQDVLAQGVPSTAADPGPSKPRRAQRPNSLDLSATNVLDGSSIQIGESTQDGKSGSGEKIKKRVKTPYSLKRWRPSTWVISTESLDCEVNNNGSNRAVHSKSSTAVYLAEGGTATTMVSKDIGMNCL

[2] = target: T2, Mitogen-activated protein kinase 15 (Homo sapiens, UniProt Q8TD08)
T2 sequence (Q8TD08 whole entry): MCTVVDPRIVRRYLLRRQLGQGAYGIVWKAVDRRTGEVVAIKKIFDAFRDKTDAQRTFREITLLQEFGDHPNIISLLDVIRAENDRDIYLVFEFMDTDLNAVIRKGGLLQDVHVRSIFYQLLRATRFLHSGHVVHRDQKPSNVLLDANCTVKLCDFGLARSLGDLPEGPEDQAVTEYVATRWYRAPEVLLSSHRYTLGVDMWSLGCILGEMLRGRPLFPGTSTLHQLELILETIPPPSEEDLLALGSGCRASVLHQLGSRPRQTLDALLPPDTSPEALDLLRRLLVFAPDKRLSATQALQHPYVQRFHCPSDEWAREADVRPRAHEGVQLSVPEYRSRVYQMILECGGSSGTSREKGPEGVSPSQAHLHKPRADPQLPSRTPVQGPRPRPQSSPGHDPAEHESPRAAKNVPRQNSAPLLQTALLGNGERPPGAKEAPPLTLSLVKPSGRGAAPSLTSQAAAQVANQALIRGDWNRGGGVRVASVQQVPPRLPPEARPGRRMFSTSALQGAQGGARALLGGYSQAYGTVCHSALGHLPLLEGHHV

[3] = target: T3, Glycogen phosphorylase, liver form (Homo sapiens, UniProt P06737); assay type: subcellular, K-562, COLO 205, SK-N-BE(2) and MV-4-11, Cell lysate; conditions: read-out: Kd apparent
T3 sequence (P06737 whole entry): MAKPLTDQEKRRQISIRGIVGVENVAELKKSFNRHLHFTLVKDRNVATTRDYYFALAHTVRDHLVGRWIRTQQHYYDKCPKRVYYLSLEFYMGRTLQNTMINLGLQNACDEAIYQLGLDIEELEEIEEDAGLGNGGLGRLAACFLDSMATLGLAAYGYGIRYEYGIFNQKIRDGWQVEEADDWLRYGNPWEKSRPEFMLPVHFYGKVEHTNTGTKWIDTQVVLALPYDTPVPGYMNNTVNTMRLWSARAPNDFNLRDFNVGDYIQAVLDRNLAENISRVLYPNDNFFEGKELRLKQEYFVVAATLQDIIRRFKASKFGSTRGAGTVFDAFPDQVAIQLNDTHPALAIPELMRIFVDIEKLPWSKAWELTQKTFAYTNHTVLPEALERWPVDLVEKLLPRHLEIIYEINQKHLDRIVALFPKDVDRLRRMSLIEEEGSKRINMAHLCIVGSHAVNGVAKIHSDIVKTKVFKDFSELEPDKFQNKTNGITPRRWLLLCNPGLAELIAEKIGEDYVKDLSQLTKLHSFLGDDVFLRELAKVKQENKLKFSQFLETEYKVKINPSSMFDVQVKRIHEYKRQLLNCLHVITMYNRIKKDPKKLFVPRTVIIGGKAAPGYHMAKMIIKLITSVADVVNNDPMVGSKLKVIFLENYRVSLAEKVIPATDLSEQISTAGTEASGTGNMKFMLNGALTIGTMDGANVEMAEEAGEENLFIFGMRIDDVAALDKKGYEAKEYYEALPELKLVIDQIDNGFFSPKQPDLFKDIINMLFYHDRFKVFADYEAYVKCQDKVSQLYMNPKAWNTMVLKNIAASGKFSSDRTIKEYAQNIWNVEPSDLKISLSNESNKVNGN

[4] = target: T4, Serine/threonine-protein kinase Nek2 (Homo sapiens, UniProt P51955)
T4 sequence (P51955 whole entry): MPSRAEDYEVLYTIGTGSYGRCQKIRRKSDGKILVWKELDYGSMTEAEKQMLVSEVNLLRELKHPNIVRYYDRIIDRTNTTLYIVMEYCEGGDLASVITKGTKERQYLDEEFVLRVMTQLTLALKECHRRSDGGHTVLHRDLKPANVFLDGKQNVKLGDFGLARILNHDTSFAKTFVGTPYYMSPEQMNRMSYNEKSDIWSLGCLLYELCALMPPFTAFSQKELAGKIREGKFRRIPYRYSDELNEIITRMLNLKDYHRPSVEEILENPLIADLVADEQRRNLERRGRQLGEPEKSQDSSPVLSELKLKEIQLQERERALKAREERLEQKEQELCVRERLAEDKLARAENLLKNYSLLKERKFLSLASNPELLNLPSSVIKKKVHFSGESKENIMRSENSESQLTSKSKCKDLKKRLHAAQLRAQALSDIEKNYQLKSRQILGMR

[5] = target: cAMP-dependent protein kinase type II-alpha regulatory subunit (Homo sapiens, UniProt P13861)
Sequence of cAMP-dependent protein kinase type II-alpha regulatory subunit (P13861 whole entry): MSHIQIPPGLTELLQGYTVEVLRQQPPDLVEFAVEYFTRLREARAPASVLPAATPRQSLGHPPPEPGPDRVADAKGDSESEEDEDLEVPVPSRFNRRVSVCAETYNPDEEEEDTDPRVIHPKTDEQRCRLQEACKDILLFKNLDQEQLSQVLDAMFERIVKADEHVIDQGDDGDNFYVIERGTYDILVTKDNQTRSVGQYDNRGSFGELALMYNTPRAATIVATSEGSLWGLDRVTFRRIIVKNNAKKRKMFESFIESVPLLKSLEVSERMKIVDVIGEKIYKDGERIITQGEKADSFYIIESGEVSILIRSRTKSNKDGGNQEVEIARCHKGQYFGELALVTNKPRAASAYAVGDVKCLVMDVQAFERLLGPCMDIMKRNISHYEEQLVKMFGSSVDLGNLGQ
Also: in the data inactive means no Kd found up to 30 µM.

Kd [1]	Kd [3]	Kd [4]	Kd [5]	pKd [1]	Structure (SMILES)	Kd [2]	pKd [2]	pKd [4]
> 30 µM (inactive)	> 30 µM (inactive)	> 30 µM (inactive)	> 30 µM (inactive)		COc1cccc(Nc2ncnn3ccc(CN4CC[C@@H](N)[C@H](O)C4)c23)c1 [BMS-690514]	> 30 µM (inactive)		
> 30 µM (inactive)	> 30 µM (inactive)	> 30 µM (inactive)	> 30 µM (inactive)		c1cc(OCCN2CCCCC2)cc(-c2n[nH]c3ccc(-c4nc[nH]n4)cc23)c1 [CC-401]	> 30 µM (inactive)		
> 30 µM (inactive)	> 30 µM (inactive)	> 30 µM (inactive)	> 30 µM (inactive)		COc1cc2ncnc3c2cc1OCCCCCN(C)Cc1ccc(Br)cc1N3 [JNJ-26483327]	> 30 µM (inactive)		
	> 30 µM (inactive)	> 30 µM (inactive)	> 30 µM (inactive)	5.68	COc1cccc2cc(-c3nc([C@H]4CC[C@H](C(=O)O)CC4)n4ncnc(N)c34)[nH]c12 [OSI-027]	> 30 µM (inactive)		
> 30 µM (inactive)	> 30 µM (inactive)	> 30 µM (inactive)	> 30 µM (inactive)		O=C(Nc1ccc(OC(F)(F)F)cc1)c1sccc1NCc1ccnc2ccccc12 [OSI-930]	> 30 µM (inactive)		

More lines, now with the values behind:

Structure (SMILES)	Kd [1]	Kd [3]	Kd [4]	Kd [5]	pKd [1]	Kd [2]	pKd [2]	pKd [4]
COc1ccc(-c2ccc3ncc4c(c3c2)n(-c2ccc(N3CCNCC3)c(C(F)(F)F)c2)c(=O)n4C)cn1 [BGT-226 FREE BASE]	> 30 µM (inactive)	> 30 µM (inactive)	> 30 µM (inactive)	> 30 µM (inactive)		> 30 µM (inactive)		
COc1cc2nccc(Oc3ccc(NC(=O)C4(C(=O)Nc5ccc(F)cc5)CC4)cc3)c2cc1OC [CABOZANTINIB]	> 30 µM (inactive)	> 30 µM (inactive)	> 30 µM (inactive)	> 30 µM (inactive)		> 30 µM (inactive)		
CC1(COc2ccc3c(c2)ncn3-c2ccc3cccc(N4CCC(N)CC4)c3n2)COC1 [CRENOLANIB]	> 30 µM (inactive)	> 30 µM (inactive)	> 30 µM (inactive)	> 30 µM (inactive)		> 30 µM (inactive)		
COc1cc2ncnc(Nc3ccc(F)c(Cl)c3)c2cc1NC(=O)/C=C/CN1CCCCC1 [DACOMITINIB ANHYDROUS]	> 30 µM (inactive)	> 30 µM (inactive)	> 30 µM (inactive)	> 30 µM (inactive)		> 30 µM (inactive)		
CNC(=O)c1ccc(Nc2ncc(C(F)(F)F)c(NCc3nccnc3N(C)S(C)(=O)=O)n2)cc1 [DEFACTINIB]	> 30 µM (inactive)	> 30 µM (inactive)	> 30 µM (inactive)	> 30 µM (inactive)		> 30 µM (inactive)		
COc1cc(Nc2ncc(F)c(Nc3ccc4c(n3)N(COP(=O)(O)O)C(=O)C(C)(C)O4)n2)cc(OC)c1OC [FOSTAMATINIB]	> 30 µM (inactive)	> 30 µM (inactive)	> 30 µM (inactive)	> 30 µM (inactive)		> 30 µM (inactive)		
CCc1nc(C(N)=O)c(Nc2ccc(N3CCC(N4CCN(C)CC4)CC3)c(OC)c2)nc1NC1CCOCC1 [GILTERITINIB]	> 30 µM (inactive)	> 30 µM (inactive)		> 30 µM (inactive)			6.58	6.61
Cc1c(Cn2c(C)nc3c(C(=O)O)cc(N4CCOCC4)cc32)cccc1C(F)(F)F [GSK-2636771]	> 30 µM (inactive)	> 30 µM (inactive)	> 30 µM (inactive)	> 30 µM (inactive)		> 30 µM (inactive)		
O=S(=O)(c1cccc2c(O)nccc12)N1CCCNCC1 [HYDROXYFASUDIL]	> 30 µM (inactive)	> 30 µM (inactive)	> 30 µM (inactive)	> 30 µM (inactive)		> 30 µM (inactive)		
C#Cc1cccc(Nc2ncnc3cc4c(cc23)OCCOCCOCCO4)c1 [ICOTINIB]	> 30 µM (inactive)	> 30 µM (inactive)	> 30 µM (inactive)	> 30 µM (inactive)		> 30 µM (inactive)		
Cc1ccc(C(=O)Nc2ccc(Oc3cc4cnn(C)c4cc3-c3cn[nH]c3)c(F)c2)c(=O)n1-c1ccc(F)cc1 [MERESTINIB]	> 30 µM (inactive)	> 30 µM (inactive)	> 30 µM (inactive)	> 30 µM (inactive)		> 30 µM (inactive)		
O=C(NOC[C@H](O)CO)c1ccc(F)c(F)c1Nc1ccc(I)cc1F [MIRDAMETINIB]	> 30 µM (inactive)	> 30 µM (inactive)	> 30 µM (inactive)	> 30 µM (inactive)		> 30 µM (inactive)		
N#CCNC(=O)c1ccc(-c2ccnc(Nc3ccc(N4CCOCC4)cc3)n2)cc1 [MOMELOTINIB]	> 30 µM (inactive)	> 30 µM (inactive)	> 30 µM (inactive)	> 30 µM (inactive)		> 30 µM (inactive)		
C=CC(=O)Nc1cc(Nc2nccc(-c3cn(C)c4ccccc34)n2)c(OC)cc1N(C)CCN(C)C [OSIMERTINIB]	> 30 µM (inactive)	> 30 µM (inactive)	> 30 µM (inactive)	> 30 µM (inactive)		> 30 µM (inactive)		
FC(F)(F)c1ccc(CNc2ccc(Cc3c[nH]c4ncc(Cl)cc34)cn2)cn1 [PEXIDARTINIB]	> 30 µM (inactive)	> 30 µM (inactive)	> 30 µM (inactive)	> 30 µM (inactive)		> 30 µM (inactive)		
O=C(NC[C@H](O)CO)c1ccncc1Nc1ccc(I)cc1F [PIMASERTIB]	> 30 µM (inactive)	> 30 µM (inactive)	> 30 µM (inactive)	> 30 µM (inactive)		> 30 µM (inactive)		
COc1cc(F)c(F)c(Nc2ccc(I)cc2F)c1NS(=O)(=O)C1(C[C@H](O)CO)CC1 [REFAMETINIB]	> 30 µM (inactive)	> 30 µM (inactive)	> 30 µM (inactive)	> 30 µM (inactive)		> 30 µM (inactive)		
